# Assay results published in PMC6979384, “Characterization of the plant homeodomain (PHD) reader family for their histone tail interactions” (Epigenetics & Chromatin, 2020).
# Key:
# Assay in all cases: Histone peptide microarray
# Assay type in all cases: binding, human
# TAF3 = conditions: sheet "Array Heatmap"; GST-tagged TAF3; arrays performed twice, total replicate number n = 4
# Summary of the method: (§1)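 Recombinant GST-PHD protein at 0.5 μM; 293-member modified histone peptide array; signals averaged from four repeats ± SD.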
# ING4 = conditions: sheet "Array Heatmap"; GST-tagged ING4; arrays performed twice, total replicate number n = 4
# Summary of the method: as §1
# KDM5A (1) = conditions: sheet "Array Heatmap"; GST-tagged KDM5A (1); arrays performed twice, total replicate number n = 4
# Summary of the method: as §1
# MLL5 = conditions: sheet "Array Heatmap"; GST-tagged MLL5; arrays performed twice, total replicate number n = 4
# Summary of the method: as §1
# DPF2 (PPC2W2) = conditions: sheet "Array Heatmap"; GST-tagged DPF2 (PPC2W2); arrays performed twice, total replicate number n = 4
# Summary of the method: as §1
# CHD5 (PCC) = conditions: sheet "Array Heatmap"; GST-tagged CHD5 (PCC); arrays performed twice, total replicate number n = 4
# Summary of the method: as §1
# ING2 = conditions: sheet "Array Heatmap"; GST-tagged ING2; arrays performed twice, total replicate number n = 4
# Summary of the method: as §1
# ING5 = conditions: sheet "Array Heatmap"; GST-tagged ING5; arrays performed twice, total replicate number n = 4
# Summary of the method: as §1
# KDM5B (3) = conditions: sheet "Array Heatmap"; GST-tagged KDM5B (3); arrays performed twice, total replicate number n = 4
# Summary of the method: as §1
# PHRF1 (RP) = conditions: sheet "Array Heatmap"; GST-tagged PHRF1 (RP); arrays performed twice, total replicate number n = 4
# Summary of the method: as §1
# RAG2 = conditions: sheet "Array Heatmap"; GST-tagged RAG2; arrays performed twice, total replicate number n = 4
# Summary of the method: as §1
# PHF8 = conditions: sheet "Array Heatmap"; GST-tagged PHF8; arrays performed twice, total replicate number n = 4
# Summary of the method: as §1
# ING1 = conditions: sheet "Array Heatmap"; GST-tagged ING1; arrays performed twice, total replicate number n = 4
# Summary of the method: as §1
# PHF21A = conditions: sheet "Array Heatmap"; GST-tagged PHF21A; arrays performed twice, total replicate number n = 4
# Summary of the method: as §1
# PHF13 = conditions: sheet "Array Heatmap"; GST-tagged PHF13; arrays performed twice, total replicate number n = 4
# Summary of the method: as §1
# SP140L = conditions: sheet "Array Heatmap"; GST-tagged SP140L; arrays performed twice, total replicate number n = 4
# Summary of the method: as §1
# PHF2 = conditions: sheet "Array Heatmap"; GST-tagged PHF2; arrays performed twice, total replicate number n = 4
# Summary of the method: as §1
# KDM5A (3) = conditions: sheet "Array Heatmap"; GST-tagged KDM5A (3); arrays performed twice, total replicate number n = 4
# Summary of the method: as §1
# TRIM66 (PB) = conditions: sheet "Array Heatmap"; GST-tagged TRIM66 (PB); arrays performed twice, total replicate number n = 4
# Summary of the method: as §1
# AIRE (PP) = conditions: sheet "Array Heatmap"; GST-tagged AIRE (PP); arrays performed twice, total replicate number n = 4
# Summary of the method: as §1
# KDM7A = conditions: sheet "Array Heatmap"; GST-tagged KDM7A; arrays performed twice, total replicate number n = 4
# Summary of the method: as §1
# KDM4C (TTP) = conditions: sheet "Array Heatmap"; GST-tagged KDM4C (TTP); arrays performed twice, total replicate number n = 4
# Summary of the method: as §1
# PHF23 = conditions: sheet "Array Heatmap"; GST-tagged PHF23; arrays performed twice, total replicate number n = 4
# Summary of the method: as §1
# BAZ2B = conditions: sheet "Array Heatmap"; GST-tagged BAZ2B; arrays performed twice, total replicate number n = 4
# Summary of the method: as §1
# CHD5 (PPCC) = conditions: sheet "Array Heatmap"; GST-tagged CHD5 (PPCC); arrays performed twice, total replicate number n = 4
# Summary of the method: as §1
# ING3 = conditions: sheet "Array Heatmap"; GST-tagged ING3; arrays performed twice, total replicate number n = 4
# Summary of the method: as §1
# CHD4 (PPCC) = conditions: sheet "Array Heatmap"; GST-tagged CHD4 (PPCC); arrays performed twice, total replicate number n = 4
# Summary of the method: as §1
# BPTF (PB) = conditions: sheet "Array Heatmap"; GST-tagged BPTF (PB); arrays performed twice, total replicate number n = 4
# Summary of the method: as §1
# KDM5B (1) = conditions: sheet "Array Heatmap"; GST-tagged KDM5B (1); arrays performed twice, total replicate number n = 4
# Summary of the method: as §1
# DIDO1 = conditions: sheet "Array Heatmap"; GST-tagged DIDO1; arrays performed twice, total replicate number n = 4
# Summary of the method: as §1
# MORC3 (CW) = conditions: sheet "Array Heatmap"; GST-tagged MORC3 (CW); arrays performed twice, total replicate number n = 4
# Summary of the method: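 A peptide microarray holding 293 synthetic histone peptides with individual or combinatorial modifications was probed with each GST-PHD protein at 0.5 μM. Values represent mean intensity (±SD) from four replicates.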
substance,measurement,setting,value
H3 105-124: H3 105-124,"Array Heatmap signal, TAF3",TAF3,0.2585
same,"Array Heatmap signal, ING4",ING4,0.4475
same,"Array Heatmap signal, KDM5A (1)",KDM5A (1),0.4735
same,"Array Heatmap signal, MLL5",MLL5,0.5209
same,"Array Heatmap signal, DPF2 (PPC2W2)",DPF2 (PPC2W2),0.5942
same,"Array Heatmap signal, CHD5 (PCC)",CHD5 (PCC),0.8446
same,"Array Heatmap signal, ING2",ING2,0.5916
same,"Array Heatmap signal, ING5",ING5,0.3472
same,"Array Heatmap signal, KDM5B (3)",KDM5B (3),0.4564
same,"Array Heatmap signal, PHRF1 (RP)",PHRF1 (RP),0.3871
same,"Array Heatmap signal, RAG2",RAG2,0.2418
same,"Array Heatmap signal, PHF8",PHF8,0.3594
same,"Array Heatmap signal, ING1",ING1,0.4905
same,"Array Heatmap signal, PHF21A",PHF21A,0.4845
same,"Array Heatmap signal, PHF13",PHF13,0.6001
same,"Array Heatmap signal, SP140L",SP140L,0.3548
same,"Array Heatmap signal, PHF2",PHF2,0.4643
same,"Array Heatmap signal, KDM5A (3)",KDM5A (3),0.3849
same,"Array Heatmap signal, TRIM66 (PB)",TRIM66 (PB),0.6004
same,"Array Heatmap signal, AIRE (PP)",AIRE (PP),0.5002
same,"Array Heatmap signal, KDM7A",KDM7A,0.4014
same,"Array Heatmap signal, KDM4C (TTP)",KDM4C (TTP),0.5235
same,"Array Heatmap signal, PHF23",PHF23,0.5245
same,"Array Heatmap signal, BAZ2B",BAZ2B,0.4756
same,"Array Heatmap signal, CHD5 (PPCC)",CHD5 (PPCC),0.5675
same,"Array Heatmap signal, ING3",ING3,0.4768
same,"Array Heatmap signal, CHD4 (PPCC)",CHD4 (PPCC),0.628
same,"Array Heatmap signal, BPTF (PB)",BPTF (PB),0.3405
same,"Array Heatmap signal, KDM5B (1)",KDM5B (1),0.6304
same,"Array Heatmap signal, DIDO1",DIDO1,0.6132
same,"Array Heatmap signal, MORC3 (CW)",MORC3 (CW),0.3313
